Results on two molecules are retold here after patent publication US12227500B2, “Substituted pyrrolo[2,3-b]pyridines for suppressing toxic endoplasmic reticulum stress” (THE TRUSTEES OF COLUMBIA UNIVERSITY IN THE CITY OF NEW YORK, priority 2018, dated 2025).

What all share (experiment): Radiolabeled ATP kinase assay, panel of 371 kinases (Table S6)
Holding throughout (format): biochemical

Experiment [1] has as its target T1, panel of 371 human kinases (Homo sapiens, UniProt Q9P0L2).
T1 construct: purchased Reaction Biology Corp
As to conditions: MARK1; 0.1 μM; 10 μM ATP; read-out: % Enzyme Activity (relative to DMSO controls). An excerpt:
(§1) ; FIG. 38C). […]. Further targeted analyses, such as genetic knock-down or knock-out, may be warranted to parse the role of these additional kinases in our model of neurodegeneration.

Experiment [2] addresses T2, panel of 371 human kinases (Homo sapiens, UniProt P19784).
T2 construct: purchased Reaction Biology Corp
As to conditions: CK2a2; 0.1 μM; 10 μM ATP; read-out: % Enzyme Activity (relative to DMSO controls).
Source text: as §1

Experiment [3] concerns the target T3, panel of 371 human kinases (Homo sapiens, UniProt Q06187).
T3 construct: purchased Reaction Biology Corp
The note with it: BTK; 0.1 μM; 10 μM ATP; read-out: % Enzyme Activity (relative to DMSO controls).
Source text: as §1

Experiment [4] has as its target T4, panel of 371 human kinases (Homo sapiens, UniProt P30530).
T4 construct: purchased Reaction Biology Corp
The note with it: AXL; 0.1 μM; 10 μM ATP; read-out: % Enzyme Activity (relative to DMSO controls).
Source text: as §1

Experiment [5] has as its target T5, panel of 371 human kinases (Homo sapiens, UniProt O95747).
T5 construct: purchased Reaction Biology Corp
The note with it: OSR1/OXSR1; 0.1 μM; 10 μM ATP; read-out: % Enzyme Activity (relative to DMSO controls).
Source text: as §1

Experiment [6] deals with T6, panel of 371 human kinases (Homo sapiens, UniProt Q15831).
T6 construct: purchased Reaction Biology Corp
As to conditions: LKB1; 0.1 μM; 10 μM ATP; read-out: % Enzyme Activity (relative to DMSO controls).
Source text: as §1

Experiment [7] has as its target T7, panel of 371 human kinases (Homo sapiens, UniProt P21709).
T7 construct: purchased Reaction Biology Corp
As to conditions: EPHA1; 0.1 μM; 10 μM ATP; read-out: % Enzyme Activity (relative to DMSO controls).
Source text: as §1

Experiment [8] addresses T8, panel of 371 human kinases (Homo sapiens, UniProt Q9P1W9).
T8 construct: purchased Reaction Biology Corp
As to conditions: PIM2; 0.1 μM; 10 μM ATP; read-out: % Enzyme Activity (relative to DMSO controls).
Source text: as §1

The target in experiment [9] is T9, panel of 371 human kinases (Homo sapiens, UniProt Q9HCP0).
T9 construct: purchased Reaction Biology Corp
As to conditions: CK1g1; 0.1 μM; 10 μM ATP; read-out: % Enzyme Activity (relative to DMSO controls).
Source text: as §1

In experiment [10] the target is T10, panel of 371 human kinases (Homo sapiens, UniProt P54756).
T10 construct: purchased Reaction Biology Corp
The note with it: EPHA5; 0.1 μM; 10 μM ATP; read-out: % Enzyme Activity (relative to DMSO controls).
Source text: as §1

In experiment [11] the target is T11, panel of 371 human kinases (Homo sapiens, UniProt P49840).
T11 construct: purchased Reaction Biology Corp
The note with it: GSK3a; 0.1 μM; 10 μM ATP; read-out: % Enzyme Activity (relative to DMSO controls).
Source text: as §1

For experiment [12], the target named is T12, panel of 371 human kinases (Homo sapiens, UniProt Q9UKI8).
T12 construct: purchased Reaction Biology Corp
As to conditions: TLK1; 0.1 μM; 10 μM ATP; read-out: % Enzyme Activity (relative to DMSO controls).
Source text: as §1

Experiment [13] addresses T13, panel of 371 human kinases (Homo sapiens, UniProt O00141).
T13 construct: purchased Reaction Biology Corp
The note with it: SGK1; 0.1 μM; 10 μM ATP; read-out: % Enzyme Activity (relative to DMSO controls).
Source text: as §1

Experiment [14] deals with T14, panel of 371 human kinases (Homo sapiens, UniProt P10398).
T14 construct: purchased Reaction Biology Corp
As to conditions: ARAF; 0.1 μM; 10 μM ATP; read-out: % Enzyme Activity (relative to DMSO controls).
Source text: as §1

The target in experiment [15] is T15, panel of 371 human kinases (Homo sapiens, UniProt Q86Z02).
T15 construct: purchased Reaction Biology Corp
The note with it: HIPK1; 0.1 μM; 10 μM ATP; read-out: % Enzyme Activity (relative to DMSO controls).
Source text: as §1

In experiment [16] the target is T16, panel of 371 human kinases (Homo sapiens, UniProt Q9Y6E0).
T16 construct: purchased Reaction Biology Corp
The note with it: MST3/STK24; 0.1 μM; 10 μM ATP; read-out: % Enzyme Activity (relative to DMSO controls).
Source text: as §1

For experiment [17], the target named is T17, panel of 371 human kinases (Homo sapiens, UniProt O15264).
T17 construct: purchased Reaction Biology Corp
The note with it: P38d/MAPK13; 0.1 μM; 10 μM ATP; read-out: % Enzyme Activity (relative to DMSO controls).
Source text: as §1

In experiment [18] the target is T18, panel of 371 human kinases (Homo sapiens, UniProt P53778).
T18 construct: purchased Reaction Biology Corp
As to conditions: P38g; 0.1 μM; 10 μM ATP; read-out: % Enzyme Activity (relative to DMSO controls).
Source text: as §1

The target of experiment [19] is T19, panel of 371 human kinases (Homo sapiens, UniProt Q13233).
T19 construct: purchased Reaction Biology Corp
As to conditions: MEKK1; 0.1 μM; 10 μM ATP; read-out: % Enzyme Activity (relative to DMSO controls).
Source text: as §1

Experiment [20] concerns the target T20, panel of 371 human kinases (Homo sapiens, UniProt Q9NYL2).
T20 construct: purchased Reaction Biology Corp
The note with it: ZAK/MLTK; 0.1 μM; 10 μM ATP; read-out: % Enzyme Activity (relative to DMSO controls).
Source text: as §1

The target of experiment [21] is T21, panel of 371 human kinases (Homo sapiens, UniProt P11309).
T21 construct: purchased Reaction Biology Corp
As to conditions: PIM1; 0.1 μM; 10 μM ATP; read-out: % Enzyme Activity (relative to DMSO controls).
Source text: as §1

For experiment [22], the target named is T22, panel of 371 human kinases (Homo sapiens, UniProt P51813).
T22 construct: purchased Reaction Biology Corp
The note with it: BMX/ETK; 0.1 μM; 10 μM ATP; read-out: % Enzyme Activity (relative to DMSO controls).
Source text: as §1

Experiment [23] has as its target T23, panel of 371 human kinases (Homo sapiens, UniProt Q9P286).
T23 construct: purchased Reaction Biology Corp
The note with it: PAK5; 0.1 μM; 10 μM ATP; read-out: % Enzyme Activity (relative to DMSO controls).
Source text: as §1

Experiment [24] deals with T24, panel of 371 human kinases (Homo sapiens, UniProt Q14012).
T24 construct: purchased Reaction Biology Corp
The note with it: CAMK1a; 0.1 μM; 10 μM ATP; read-out: % Enzyme Activity (relative to DMSO controls).
Source text: as §1

T10 sequence (P54756 25-1037): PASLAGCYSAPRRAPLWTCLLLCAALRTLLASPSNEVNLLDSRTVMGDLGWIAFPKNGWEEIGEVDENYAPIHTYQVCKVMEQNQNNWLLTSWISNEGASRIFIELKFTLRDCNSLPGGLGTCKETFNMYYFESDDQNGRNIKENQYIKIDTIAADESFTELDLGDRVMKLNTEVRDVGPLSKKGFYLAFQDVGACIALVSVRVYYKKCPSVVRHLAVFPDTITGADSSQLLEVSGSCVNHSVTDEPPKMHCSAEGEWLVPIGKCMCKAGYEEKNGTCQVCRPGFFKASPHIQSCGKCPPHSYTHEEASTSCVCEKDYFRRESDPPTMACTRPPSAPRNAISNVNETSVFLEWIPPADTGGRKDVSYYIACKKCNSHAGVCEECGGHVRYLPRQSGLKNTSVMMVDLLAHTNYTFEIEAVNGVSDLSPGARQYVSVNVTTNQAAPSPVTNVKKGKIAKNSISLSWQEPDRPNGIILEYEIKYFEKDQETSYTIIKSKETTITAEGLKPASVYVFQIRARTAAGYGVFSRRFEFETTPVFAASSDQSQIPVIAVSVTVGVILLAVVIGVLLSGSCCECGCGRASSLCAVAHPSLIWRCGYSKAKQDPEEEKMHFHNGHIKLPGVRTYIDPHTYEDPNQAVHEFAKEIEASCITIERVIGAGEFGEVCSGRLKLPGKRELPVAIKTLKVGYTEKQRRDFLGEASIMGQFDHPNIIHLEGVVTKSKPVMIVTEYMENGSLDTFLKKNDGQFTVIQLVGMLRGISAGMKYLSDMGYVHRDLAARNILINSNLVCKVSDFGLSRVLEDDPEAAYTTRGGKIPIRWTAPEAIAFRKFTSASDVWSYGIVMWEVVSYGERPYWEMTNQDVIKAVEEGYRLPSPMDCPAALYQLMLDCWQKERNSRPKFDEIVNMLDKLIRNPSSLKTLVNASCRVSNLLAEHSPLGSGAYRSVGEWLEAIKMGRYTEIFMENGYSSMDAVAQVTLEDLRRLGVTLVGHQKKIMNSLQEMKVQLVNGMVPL
T13 sequence (O00141 whole entry): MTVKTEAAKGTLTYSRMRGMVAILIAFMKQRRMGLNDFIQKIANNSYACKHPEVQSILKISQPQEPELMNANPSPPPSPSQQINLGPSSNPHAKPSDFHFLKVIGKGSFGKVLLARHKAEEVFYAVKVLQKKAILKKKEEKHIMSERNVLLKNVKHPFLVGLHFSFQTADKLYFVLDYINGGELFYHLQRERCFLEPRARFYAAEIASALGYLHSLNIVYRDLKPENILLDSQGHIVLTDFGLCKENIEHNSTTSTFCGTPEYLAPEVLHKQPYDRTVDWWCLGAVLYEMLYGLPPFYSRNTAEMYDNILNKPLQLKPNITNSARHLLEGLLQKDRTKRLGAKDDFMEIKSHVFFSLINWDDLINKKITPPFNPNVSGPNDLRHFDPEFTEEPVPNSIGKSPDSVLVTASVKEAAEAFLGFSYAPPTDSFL
T1 sequence (Q9P0L2 whole entry): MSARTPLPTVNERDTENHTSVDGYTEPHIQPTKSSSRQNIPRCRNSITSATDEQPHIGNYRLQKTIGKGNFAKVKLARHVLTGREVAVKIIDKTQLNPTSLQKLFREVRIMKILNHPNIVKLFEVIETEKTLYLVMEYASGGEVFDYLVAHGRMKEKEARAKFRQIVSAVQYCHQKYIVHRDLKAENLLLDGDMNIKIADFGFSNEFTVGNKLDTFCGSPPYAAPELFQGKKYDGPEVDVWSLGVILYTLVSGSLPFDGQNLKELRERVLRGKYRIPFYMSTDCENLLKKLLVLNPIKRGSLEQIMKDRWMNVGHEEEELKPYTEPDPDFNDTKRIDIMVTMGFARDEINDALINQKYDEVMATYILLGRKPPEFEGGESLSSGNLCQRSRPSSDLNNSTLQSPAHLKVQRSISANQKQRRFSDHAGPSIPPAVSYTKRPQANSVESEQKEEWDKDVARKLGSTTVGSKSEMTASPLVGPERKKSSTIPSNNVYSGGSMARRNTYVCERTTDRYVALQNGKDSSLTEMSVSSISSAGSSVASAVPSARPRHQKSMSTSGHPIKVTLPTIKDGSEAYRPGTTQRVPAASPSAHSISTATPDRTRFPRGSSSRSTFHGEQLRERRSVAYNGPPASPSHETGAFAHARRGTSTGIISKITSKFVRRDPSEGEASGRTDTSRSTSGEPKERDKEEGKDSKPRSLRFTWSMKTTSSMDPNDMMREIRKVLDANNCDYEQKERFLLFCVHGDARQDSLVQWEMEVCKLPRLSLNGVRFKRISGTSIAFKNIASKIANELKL
T23 sequence (Q9P286 whole entry): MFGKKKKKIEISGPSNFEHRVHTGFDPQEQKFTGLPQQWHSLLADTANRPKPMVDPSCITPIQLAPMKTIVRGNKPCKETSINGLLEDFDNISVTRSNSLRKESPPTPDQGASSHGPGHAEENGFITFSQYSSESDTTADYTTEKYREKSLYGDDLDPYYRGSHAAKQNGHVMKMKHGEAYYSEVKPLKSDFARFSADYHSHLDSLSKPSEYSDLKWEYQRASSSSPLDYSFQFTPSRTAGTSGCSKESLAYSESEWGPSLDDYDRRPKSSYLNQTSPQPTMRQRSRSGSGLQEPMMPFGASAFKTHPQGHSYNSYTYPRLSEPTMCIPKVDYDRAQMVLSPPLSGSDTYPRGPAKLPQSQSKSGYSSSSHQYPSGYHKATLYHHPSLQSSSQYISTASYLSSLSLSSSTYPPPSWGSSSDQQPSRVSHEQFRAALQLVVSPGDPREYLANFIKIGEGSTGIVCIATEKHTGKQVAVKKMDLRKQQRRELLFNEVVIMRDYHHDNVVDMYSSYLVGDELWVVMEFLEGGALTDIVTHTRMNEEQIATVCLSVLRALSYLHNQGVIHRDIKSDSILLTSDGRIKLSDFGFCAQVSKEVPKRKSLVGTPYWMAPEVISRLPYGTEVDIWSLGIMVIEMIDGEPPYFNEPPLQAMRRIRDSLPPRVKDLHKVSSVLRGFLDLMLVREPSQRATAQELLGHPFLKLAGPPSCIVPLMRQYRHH
T17 sequence (O15264 whole entry): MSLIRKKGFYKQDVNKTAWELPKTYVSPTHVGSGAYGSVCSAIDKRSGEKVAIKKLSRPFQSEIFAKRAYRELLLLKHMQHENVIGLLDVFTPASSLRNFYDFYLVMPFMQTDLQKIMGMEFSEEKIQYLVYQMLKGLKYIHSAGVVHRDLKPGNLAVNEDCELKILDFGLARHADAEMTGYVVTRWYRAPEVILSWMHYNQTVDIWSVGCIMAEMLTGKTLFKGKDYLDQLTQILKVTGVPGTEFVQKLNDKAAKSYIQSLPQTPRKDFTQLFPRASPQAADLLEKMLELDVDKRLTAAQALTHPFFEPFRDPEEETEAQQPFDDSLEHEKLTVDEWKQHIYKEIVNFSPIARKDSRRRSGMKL
T7 sequence (P21709 26-976): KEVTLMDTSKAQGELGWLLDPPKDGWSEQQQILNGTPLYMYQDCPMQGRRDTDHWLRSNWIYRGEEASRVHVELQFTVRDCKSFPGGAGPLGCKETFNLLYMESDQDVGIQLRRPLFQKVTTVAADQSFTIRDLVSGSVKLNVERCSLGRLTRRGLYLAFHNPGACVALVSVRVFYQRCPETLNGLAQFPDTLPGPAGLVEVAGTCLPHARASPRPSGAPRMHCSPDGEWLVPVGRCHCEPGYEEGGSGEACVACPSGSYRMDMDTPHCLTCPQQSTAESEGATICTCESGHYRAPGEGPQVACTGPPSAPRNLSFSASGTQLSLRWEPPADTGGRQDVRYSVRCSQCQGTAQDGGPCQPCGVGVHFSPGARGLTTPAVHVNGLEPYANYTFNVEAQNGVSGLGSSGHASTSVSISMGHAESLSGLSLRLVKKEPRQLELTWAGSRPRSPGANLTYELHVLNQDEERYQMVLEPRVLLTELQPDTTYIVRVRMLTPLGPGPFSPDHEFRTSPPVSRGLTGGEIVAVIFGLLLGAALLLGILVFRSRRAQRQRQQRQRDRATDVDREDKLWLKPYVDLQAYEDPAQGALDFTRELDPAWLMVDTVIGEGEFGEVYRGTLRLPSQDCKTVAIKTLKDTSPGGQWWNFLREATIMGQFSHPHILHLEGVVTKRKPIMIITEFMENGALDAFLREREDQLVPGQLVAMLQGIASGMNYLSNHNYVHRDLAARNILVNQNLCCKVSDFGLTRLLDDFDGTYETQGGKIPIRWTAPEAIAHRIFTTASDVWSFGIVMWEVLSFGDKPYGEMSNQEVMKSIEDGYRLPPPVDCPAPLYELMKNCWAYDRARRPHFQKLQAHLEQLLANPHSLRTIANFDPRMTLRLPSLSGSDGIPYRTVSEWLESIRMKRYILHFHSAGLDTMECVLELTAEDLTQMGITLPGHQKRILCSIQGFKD
T9 sequence (Q9HCP0 whole entry): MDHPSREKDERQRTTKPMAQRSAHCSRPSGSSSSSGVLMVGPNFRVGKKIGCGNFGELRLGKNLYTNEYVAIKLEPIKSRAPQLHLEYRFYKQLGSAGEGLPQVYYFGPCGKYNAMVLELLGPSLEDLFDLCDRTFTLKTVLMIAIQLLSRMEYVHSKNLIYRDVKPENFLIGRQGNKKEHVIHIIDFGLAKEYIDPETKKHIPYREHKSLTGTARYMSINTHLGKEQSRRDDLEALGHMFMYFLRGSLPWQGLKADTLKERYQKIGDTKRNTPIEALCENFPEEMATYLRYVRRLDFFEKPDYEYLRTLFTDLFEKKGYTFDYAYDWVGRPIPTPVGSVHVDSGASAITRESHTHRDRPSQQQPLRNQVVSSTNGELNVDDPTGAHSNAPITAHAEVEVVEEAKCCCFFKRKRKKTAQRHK
T2 sequence (P19784 whole entry): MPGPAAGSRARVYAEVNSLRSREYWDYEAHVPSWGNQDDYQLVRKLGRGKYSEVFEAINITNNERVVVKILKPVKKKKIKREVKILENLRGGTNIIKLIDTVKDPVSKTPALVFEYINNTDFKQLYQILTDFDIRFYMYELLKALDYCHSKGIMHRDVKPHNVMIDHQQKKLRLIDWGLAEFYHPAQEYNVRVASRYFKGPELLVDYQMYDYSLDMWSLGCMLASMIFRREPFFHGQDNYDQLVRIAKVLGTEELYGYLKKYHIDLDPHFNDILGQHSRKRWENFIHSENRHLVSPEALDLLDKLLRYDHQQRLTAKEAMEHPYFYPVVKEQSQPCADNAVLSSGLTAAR

In the case of `CN1CCN(Cc2ccc(-c3cnc4[nH]cc(-c5ccc6[nH]ccc6c5)c4c3)cc2)CC1` [Compound 1, 3-(1H-Indol-5-yl)-5-(4-((4-methylpiperazin-1-yl)methyl)phenyl)-1H-pyrrolo[2,3-b]pyridine, reference compound], the remaining activity at 0.1 µM is 86.2% in [1]; 84.3% in experiment [2]; 103% in experiment [3]; 35.8% in [4]; 102% in experiment [5]; 101% in [6]. For the same molecule, the remaining activity at 0.1 µM came to 74.2% in experiment [7]; 106% in [8]; 143% in experiment [9]; 94.2% in experiment [10]; 84.8% in [11]; 102% in [12]. Further, the remaining activity at 0.1 µM in experiment [13] stood at 96%; in experiment [14], 108%; in [15], 106%; in [16] it was 71.2%; in experiment [17], 132%; in [18] it was 108%. Moreover, the remaining activity at 0.1 µM in experiment [19] came out at 102%; in experiment [20], 91.3%; in experiment [21], 93.2%; in [22], 101%; in [23] it was 113%; in [24] it was 100%.
For `OCCN1CCN(Cc2ccc(-c3cnc4[nH]cc(-c5cccc(Cl)c5)c4c3)cc2)CC1` [Compound 12k, 2-(4-(4-(3-(3-Chlorophenyl)-1H-pyrrolo[2,3-b]pyridin-5-yl)benzyl)piperazin-1-yl)ethan-1-ol], the remaining activity at 0.1 µM was determined as 52.5% in experiment [1]; 89% in [2]; 99.7% in [3]; 39.8% in experiment [4]; 97.1% in [5]; 78.7% in experiment [6]. In addition, the remaining activity at 0.1 µM was 89.4% in [7]; 106% in [8]; 116% in experiment [9]; 98.8% in [10]; 91.6% in experiment [11]; 102% in experiment [12]. Also, the remaining activity at 0.1 µM in experiment [13] stood at 99.6%; in experiment [14], 96.6%; in experiment [15], 96%; in [16], 78.4%; in experiment [17], 103%; in experiment [18] it was 99.7%. Also, the remaining activity at 0.1 µM in [19] turned out to be 94%; in [20], 77.9%; in experiment [21] it was 98.5%; in experiment [22] it was 103%; in experiment [23] it was 99%; in [24], 121%.
